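Each compound was tested at five concentrations against cells in 96-well plates for 48 hours. GI50 marks 50% less growth. TGI: total growth inhibition.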
How the values were obtained:
Experiment in all cases: DTP human tumour cell line panel, 48 h; in the data active = GI50 below about 0.43 µM; inactive = the rest
CCRF-CEM leukemia = tested on: CCRF-CEM leukemia
A498 renal = tested on: A498 renal
MALME-3M melanoma = tested on: MALME-3M melanoma
T-47D breast = tested on: T-47D breast
SK-MEL-2 melanoma = tested on: SK-MEL-2 melanoma
SW-620 colon = tested on: SW-620 colon
HCC-2998 colon = tested on: HCC-2998 colon
KM12 colon = tested on: KM12 colon
HS 578T breast = tested on: HS 578T breast
OVCAR-3 ovarian = tested on: OVCAR-3 ovarian
NCI/ADR-RES ovarian = tested on: NCI/ADR-RES ovarian
MCF7 breast = tested on: MCF7 breast
ACHN renal = tested on: ACHN renal
HL-60(TB) leukemia = tested on: HL-60(TB) leukemia
SK-MEL-28 melanoma = tested on: SK-MEL-28 melanoma
MOLT-4 leukemia = tested on: MOLT-4 leukemia
SF-539 CNS = tested on: SF-539 CNS
BT-549 breast = tested on: BT-549 breast
LOX IMVI melanoma = tested on: LOX IMVI melanoma
HCT-15 colon = tested on: HCT-15 colon
NCI-H23 lung = tested on: NCI-H23 lung
A549 NSCLC = tested on: A549 NSCLC
OVCAR-5 ovarian = tested on: OVCAR-5 ovarian
HT29 colon = tested on: HT29 colon
CAKI-1 renal = tested on: CAKI-1 renal
OVCAR-8 ovarian = tested on: OVCAR-8 ovarian
NCI-H460 lung = tested on: NCI-H460 lung
DU-145 prostate = tested on: DU-145 prostate
SN12C renal = tested on: SN12C renal
SNB-75 CNS = tested on: SNB-75 CNS
HOP-92 NSCLC = tested on: HOP-92 NSCLC
IGROV1 ovarian = tested on: IGROV1 ovarian
U251 CNS = tested on: U251 CNS
SK-MEL-5 melanoma = tested on: SK-MEL-5 melanoma
EKVX NSCLC = tested on: EKVX NSCLC
M14 melanoma = tested on: M14 melanoma
UACC-62 melanoma = tested on: UACC-62 melanoma
SNB-19 CNS = tested on: SNB-19 CNS
SF-268 CNS = tested on: SF-268 CNS
SR leukemia = tested on: SR leukemia
PC-3 prostate = tested on: PC-3 prostate
OVCAR-4 ovarian = tested on: OVCAR-4 ovarian
COLO 205 colon = tested on: COLO 205 colon
MDA-MB-435 = tested on: MDA-MB-435
NCI-H226 lung = tested on: NCI-H226 lung
RPMI-8226 leukemia = tested on: RPMI-8226 leukemia
HCT-116 colon = tested on: HCT-116 colon
SK-OV-3 ovarian = tested on: SK-OV-3 ovarian
HOP-62 NSCLC = tested on: HOP-62 NSCLC
MDA-MB-231 breast = tested on: MDA-MB-231 breast
NCI-H522 lung = tested on: NCI-H522 lung
UACC-257 melanoma = tested on: UACC-257 melanoma
TK-10 renal = tested on: TK-10 renal
SF-295 CNS = tested on: SF-295 CNS
K-562 leukemia = tested on: K-562 leukemia
UO-31 renal = tested on: UO-31 renal
786-0 renal = tested on: 786-0 renal

COc1cccc(C2C3=C(COC3=O)N(CCO)c3cc4c(cc32)OCCO4)c1 (stereo not given)
1230 nM: TGI (SK-MEL-5 melanoma)
> 10900 nM: TGI (BT-549 breast)
> 15600 nM: TGI (UO-31 renal)
4280 nM: TGI (SK-OV-3 ovarian)
inactive: GI50 (MALME-3M melanoma) 49100 nM | GI50 (ACHN renal) 769 nM | GI50 (SK-MEL-28 melanoma) > 50000 nM | GI50 (OVCAR-5 ovarian) 427 nM | GI50 (OVCAR-4 ovarian) 472 nM | GI50 (NCI-H226 lung) 7260 nM | GI50 (TK-10 renal) 891 nM
650 nM: TGI (DU-145 prostate)
active: GI50 (CCRF-CEM leukemia) 151 nM | GI50 (A498 renal) 26.4 nM | GI50 (T-47D breast) 239 nM | GI50 (SK-MEL-2 melanoma) 39.6 nM | GI50 (SW-620 colon) 104 nM | GI50 (HCC-2998 colon) 95.7 nM | GI50 (KM12 colon) 79.8 nM | GI50 (HS 578T breast) 114 nM | GI50 (OVCAR-3 ovarian) 87.8 nM | GI50 (NCI/ADR-RES ovarian) 137 nM | GI50 (MCF7 breast) 39.6 nM | GI50 (HL-60(TB) leukemia) 111 nM | GI50 (MOLT-4 leukemia) 195 nM | GI50 (SF-539 CNS) 124 nM | GI50 (BT-549 breast) 255 nM | GI50 (LOX IMVI melanoma) 288 nM | GI50 (HCT-15 colon) 210 nM | GI50 (NCI-H23 lung) 150 nM | GI50 (A549 NSCLC) 207 nM | GI50 (HT29 colon) 124 nM | GI50 (CAKI-1 renal) 145 nM | GI50 (OVCAR-8 ovarian) 220 nM | GI50 (NCI-H460 lung) 148 nM | GI50 (DU-145 prostate) 157 nM | GI50 (SNB-75 CNS) 72.2 nM | GI50 (HOP-92 NSCLC) 34.8 nM | GI50 (IGROV1 ovarian) 95.9 nM | GI50 (U251 CNS) 221 nM | GI50 (SK-MEL-5 melanoma) 47.4 nM | GI50 (EKVX NSCLC) 265 nM | GI50 (M14 melanoma) 52 nM | GI50 (SF-268 CNS) 355 nM | GI50 (SR leukemia) 27.1 nM | GI50 (PC-3 prostate) 120 nM | GI50 (COLO 205 colon) 108 nM | GI50 (MDA-MB-435) 17.9 nM | GI50 (RPMI-8226 leukemia) 56.4 nM | GI50 (HCT-116 colon) 152 nM | GI50 (SK-OV-3 ovarian) 128 nM | GI50 (HOP-62 NSCLC) 287 nM | GI50 (MDA-MB-231 breast) 257 nM | GI50 (NCI-H522 lung) 8.07 nM | GI50 (UACC-257 melanoma) 46.7 nM | GI50 (SF-295 CNS) 38.9 nM | GI50 (K-562 leukemia) 82.7 nM | GI50 (UO-31 renal) 268 nM | GI50 (786-0 renal) 198 nM
34500 nM: TGI (MDA-MB-231 breast)
254 nM: TGI (OVCAR-3 ovarian)
268 nM: TGI (COLO 205 colon)
422 nM: TGI (HL-60(TB) leukemia)
424 nM: TGI (SNB-75 CNS)
> 15800 nM: TGI (SNB-19 CNS)
> 50000 nM: TGI (CCRF-CEM leukemia) | TGI (MALME-3M melanoma) | TGI (T-47D breast) | TGI (SW-620 colon) | TGI (MCF7 breast) | TGI (ACHN renal) | TGI (SK-MEL-28 melanoma) | TGI (LOX IMVI melanoma) | TGI (HCT-15 colon) | TGI (NCI-H23 lung) | TGI (A549 NSCLC) | TGI (OVCAR-5 ovarian) | TGI (OVCAR-8 ovarian) | TGI (SN12C renal) | TGI (U251 CNS) | TGI (EKVX NSCLC) | TGI (UACC-62 melanoma) | TGI (SF-268 CNS) | TGI (PC-3 prostate) | TGI (OVCAR-4 ovarian) | TGI (NCI-H226 lung) | TGI (HOP-62 NSCLC) | TGI (UACC-257 melanoma) | TGI (K-562 leukemia) | TGI (786-0 renal)
727 nM: TGI (NCI/ADR-RES ovarian)
22100 nM: TGI (HS 578T breast)
276 nM: TGI (A498 renal)
1190 nM: TGI (NCI-H460 lung)
242 nM: TGI (HCC-2998 colon)
1340 nM: TGI (HT29 colon)
1850 nM: TGI (KM12 colon)
20.8 nM: TGI (NCI-H522 lung)
76.7 nM: TGI (MDA-MB-435)
3160 nM: TGI (HCT-116 colon)
> 34800 nM: TGI (CAKI-1 renal)
2890 nM: TGI (HOP-92 NSCLC)
219 nM: TGI (SK-MEL-2 melanoma)
906 nM: TGI (IGROV1 ovarian)
190 nM: TGI (M14 melanoma)

From PubChem BioAssay (NCI)
